Entries after “also recorded” stand apart in the source; their conditions may differ.
Tests used:
pre-miR-21 = assay: 1D 1H imino NMR / NOESY titration of pre-miR-21 with compound; type: binding, human; details: for closing of the apical loop of pre-miR-21 (new imino signals / base pairs): 1 mM pre-miR-21 titrated to 1.5 mM compound, 800 MHz, 5° C., 50 mM deuterated Tris pH 6.5, 50 mM NaCl; for binding to pre-miR-21 (NMR data): FIGS. 7A-7D
Description: All data were collected at 800 Mhz and at 5° C. in buffer containing 50 mM deuterated Tris at pH 6.5 and 50 mM NaCl.
Remarkably, the compounds have the unique capacity to ‘close the loop’ of pre-miR-21. This large change in RNA structure is shown in FIGS. 7A-7D, compared to the unbound RNA which are shown at the bottom of FIGS. 7A and 7C. […] The effect is very similar to what is observed with mutations that stabilize the loop structure by inducing stable formations of base pairs in place of unstable base pairs, and that also reduce miR-21 expression in both biochemical experiments and in cells, as reported in the literature. Accordingly, the compounds of formula (I) are specific pre-miR-21 binding compounds with the capacity to inhibit enzymatic processing of this oncogenic miRNA sequence.
RNA Transcription. All RNAs for ligand screening and structural or biochemical work were prepared in house using in vitro transcription on a large scale (typically 10 mL). RNA transcription and purification protocols used purified DNA oligonucleotide templates (IDT) and T7 RNA polymerase. Briefly, 1 mL of 8 μM TOP DNA (5′-CTATAGTGAGTCGTATTA-3′ (SEQ ID NO: 1)), corresponding to the phage T7 RNA polymerase promoter region, was annealed to 80 μL of 100 μM template sequences with 13 mM MgCl2, heated to 95° C. for […] then allowed to anneal to room temperature over 20 min. The annealing mixture was incubated with 5 mM of each of the four NTPs (ATP, GTP, UTP and CTP, from Sigma), transcription buffer, 8% PEG-8000 and 35 mM magnesium chloride with 0.4 mg/mL T7 RNA polymerase expressed and purified using established methods. All RNA samples are purified from crude transcriptions by 20% denaturing polyacrylamide gel electrophoresis (PAGE), electroeluted and concentrated by ethanol precipitation. The samples are re-dissolved in 12 mL of high salt wash (700 mM NaCl, 200 mM KCl, in 10 mM potassium phosphate at pH 6.5, with 10 μM EDTA to chelate any divalent ions), concentrated using Centriprep conical concentrators ([…] MWC, Millipore). The RNA was then slowly exchanged into low salt storage buffer (10 mM potassium phosphate at pH 6.5, with 10 mM NaCl and 10 μM EDTA). Prior to NMR experiments, all RNA samples were finally desalted using NAP-10 gravity columns, lyophilized and re-dissolved in ‘screening buffer’ or ‘structure buffer’ (see below), then annealed by heating for 4 min to 90° C. and snap cooling at −20° C.

[1] = tested on: pre-miR-21 processing by Dicer-TRBP; assay: Dicer/TRBP in vitro processing of pre-miR-21; type: biochemical, human; details: for inhibition of Dicer processing: pre-miR-21 compared with pre-Let7
Description: In order to further assess the biochemical activity of our compounds, processing of pre-miR-21 and pre-Let7 by Dicer-TRBP in vitro was compared. FIGS. 9A and 9B show selective response in the rate of processing under early phase reaction conditions, before significant product builds up, for pre-miR21 compared to pre-Let7.
The results are specific to the initial rates (0.25-5 min) of the reaction. […] This is inevitable because Dicer binds the product tightly. This assay and method of inhibiting miR-21 synthesis is different than typical enzymatic assays. First, the small molecule is targeting the substrate of the enzymatic assay. High affinity compounds that change the structure of the substrate may reduce processing but might not inhibit processing completely. Rather, changes in the specificity constant (kcat/Km), are a better measure of small molecule inhibition than traditional Ki's.
Dicer/TRBP. The Dicer/TRBP enzyme complex was expressed and purified using published methods and stored at −80° C. in 20 μL aliquots until needed. Briefly, the gene encoding human full-length Dicer was inserted into a modified pFastBac1 vector (Invitrogen), which has an N-terminal glutathione-S-transferase (GST) tag. The GST fusion proteins were expressed in HiFive insect cells following standard procedures and isolated by glutathione affinity chromatography using buffer A (20 mM Tris-HCl pH 8.0, 150 mM NaCl, 2 mM DTT). After on-column cleavage by Tobacco Etch Virus (TEV) protease overnight, the proteins were eluted, concentrated and loaded onto Superdex 200 GL column equilibrated in buffer A. Sequences coding for human full-length TRBP2 were cloned into a modified pET28a vector with an N-terminal GB1 tag. The clones were transformed into Rosetta 2 cells and the transformants were grown in LB media at 37° C. until the cells reached a density corresponding to an OD reading of 0.8 at 600 nm. Protein expression was induced by addition of 0.2 mM IPTG at 18° C. for 20 hours. The cells were harvested, pelleted and resuspended in 20 mM Tris-HCl pH 8.0, 500 mM NaCl, mM imidazole, with 5 mM β-ME. […]

Compound	closing of the apical loop of pre-miR-21 (new imino signals / base pairs) (pre-miR-21)	binding to pre-miR-21 (NMR data) (pre-miR-21)	pre-miR-21 processing by DICER/TRBP ([1]; 2 μM compound vs no compound, initial rates)	inhibition of Dicer processing [1]
O=c1[nH]c(Nc2ccc(N3CCNCC3)cn2)nc2cccnc12 [Compound 25]	formation of the putative tandem UG/GU wobble pair in the apical loop; also recorded: emergence of new imino NH chemical shift resonances for the apical loop portion	bind to pre-miR-21 strongly	processing activity is visibly reduced; also recorded: visibly reduced pre-miR-21 processing	specifically inhibit Dicer processing
O=c1[nH]c(Nc2ccc(N3CCNCC3)cn2)nc2cnccc12 [Compound 30]	emergence of new imino NH chemical shift resonances for the apical loop portion	bind to pre-miR-21 strongly	–	specifically inhibit Dicer processing

— patent US20230416247A1, “DRUG-LIKE MOLECULES AND METHODS FOR THE THERAPEUTIC TARGETING OF MICRORNA-21” (University of Washington, priority 2020, published 2023)
